2 sequences from article PMC12552119, “Tailored structured peptide design with a key-cutting machine approach” (Nature Machine Intelligence, 2025) can be followed below.

Where no end group is shown, it is not given here.

The subject of data set [1] is A. baumannii ATCC 19606. The data set is classed as cell-based, Acinetobacter baumannii. To be noted: ATCC 19606, 24 h. Here is the method:
(§1) Fig. 2 Antimicrobial activity and secondary structure of computationally designed peptides. a, Structure prediction of the synthesized peptides. b, Heatmap of the antimicrobial activities of the peptides against 11 clinically relevant pathogens, including four strains resistant to conventional antibiotics. Briefly, 10^6 bacterial cells and serially diluted peptides (1-64 μmol l^−1) were incubated at 37 °C. One day after treatment, the optical density at 600 nm was measured in a microplate reader to evaluate bacterial growth in the presence of the peptides. MIC values in the heatmap are the mode of the replicates in each condition. c–f, Ternary plots showing the percentage of secondary structure for each peptide (at 50 μmol l^−1) in four different solvents: water (c), 60% TFE in water (d), 10 mmol l^−1 SDS in water (e) and 50% methanol (MeOH) in water (f). Secondary structure fractions were calculated using the BeStSel server. […] An error of one column cannot be fully excluded. / Panel b: AT1, AT2, AT3 and all blank cells print no number and are left out.
(§2) In this study, we used the following pathogenic bacterial strains: A. baumannii ATCC 19606, E. coli AIC221 (E. coli MG1655 phnE_2::FRT (control strain for AIC222)) and E. coli AIC222 (E. coli MG1655 pmrA53 phnE_2::FRT (polymyxin resistant; colistin-resistant strain)), Klebsiella pneumoniae ATCC 13883, Pseudomonas aeruginosa PAO1, P. aeruginosa PA14 and Staphylococcus aureus ATCC 12600. All pathogens were grown in Luria–Bertani (LB) broth and on LB agar. Pseudomonas isolation (P. aeruginosa strains) agar plates were exclusively used in the case of Pseudomonas species. In all the experiments, bacteria were inoculated from one isolated colony and grown overnight (16 h) in liquid medium at 37 °C. On the following day, inocula were diluted 1:100 in fresh media and incubated at 37 °C to mid-logarithmic phase.
(§3) Broth microdilution assays[64] were conducted to establish the MIC for each peptide. Peptides were added to untreated polystyrene 96-well microtiter plates and serially diluted twofold in sterile water, ranging from 1 to 64 μmol l^−1. A bacterial inoculum at a concentration of 10^6 CFU ml^−1 in LB medium was then mixed in a 1:1 ratio with the peptide solution. […] Each assay was performed in three independent replicates.

The next data set deals with K. pneumoniae ATCC 13883. The format is cell-based, Klebsiella pneumoniae. To be noted: ATCC 13883, 24 h. Here is the method:
as §1, §2, §3

Another data set concerns S. aureus ATCC 12600. The format is cell-based, Staphylococcus aureus. To be noted: ATCC 12600, 24 h. Here is the method: as §1, with “out. […]” for “out.”
For data set [2], the system named is E. faecium ATCC 700221 - VRE. The data set is classed as cell-based. To be noted: ATCC 700221, 24 h. Here is the method:
as §1, §3

Data set [3] deals with S. aureus ATCC BAA-1556 - MRSA. The format is cell-based. To be noted: ATCC BAA-1556, 24 h. Here is the method: as §1, §3
Another data set has as its system HEK293T cells. The data set can be described thus: Cytotoxicity, MTT assay. The data set is classed as cell-based, human. To be noted: 24 h. Here is the method: Fig. 3 Mechanism of action and cytotoxic activity of designed peptides. a, To assess whether the peptides act on bacterial membranes, all active peptides against A. baumannii American Type Culture Collection (ATCC) 19606 were subjected to outer-membrane permeabilization, and peptides active against A. baumannii ATCC 19606 and vancomycin-resistant E. faecalis ATCC 700802 were tested in cytoplasmic-membrane depolarization assays. b, The fluorescent probe NPN was used to assess membrane permeabilization induced by the tested peptides. c,d, The fluorescent probe DiSC3-5 was used to evaluate membrane depolarization caused by the designed peptides in A. baumannii ATCC 19606 (c) and vancomycin-resistant E. faecalis ATCC 700802 (d). […] All experiments were performed in three independent replicates. Panel a created with BioRender.com. Source data TEXT PRINTED IN THE PICTURE: (e) AT1: CC50 (μmol l^-1), HEK293T cells: 2,758 | (e) AT2: CC50 (μmol l^-1), HEK293T cells: 2 × 10^37 | (e) AT3: CC50 (μmol l^-1), HEK293T cells: 269 | (e) AT4: CC50 (μmol l^-1), HEK293T cells: 3,015 | (e) AT5: CC50 (μmol l^-1), HEK293T cells: 6 × 10^41 | (e) NE1: CC50 (μmol l^-1), HEK293T cells: 6 × 10^33 | (e) NE2: CC50 (μmol l^-1), HEK293T cells: 507 | (e) NE3: CC50 (μmol l^-1), HEK293T cells: 655 | (e) NE4: CC50 (μmol l^-1), HEK293T cells: 2 × 10^32 | (e) NG1: CC50 (μmol l^-1), HEK293T cells: 351 | (e) NG2: CC50 (μmol l^-1), HEK293T cells: 1 × 10^35 | (e) NG3: CC50 (μmol l^-1), HEK293T cells: 2 × 10^46 DOUBTS OF THE COPYIST ABOUT THIS PICTURE: AT2, CC50: small exponent, 37 or 57 / AT5, CC50: small exponent, 41 uncertain / NE1, CC50: small exponent, 33 or 38 / NE4, CC50: small exponent, 32 or 52 / NG2, CC50: small exponent, 35 or 36 / NG3, CC50: small exponent, 46 or 48 […]
HEK293T cells were obtained from the ATCC (CRL-3216). The cells were cultured in high-glucose DMEM supplemented with 1% penicillin and streptomycin (antibiotics) and 10% fetal bovine serum and grown at 37 °C in a humidified atmosphere containing 5% CO2.
One day before the experiment, an aliquot of 100 μl of the cells at 50,000 cells ml^−1 was seeded into each well of the cell-treated 96-well plates used in the experiment (that is, 5,000 cells per well)[45]. The attached HEK293T cells were then exposed to increasing concentrations of the peptides (4–64 μmol l^−1) for 24 h. After the incubation period, we performed the (3-(4,5-dimethylthiazol-2-yl)-2,5-diphenyltetrazolium bromide) tetrazolium reduction assay (MTT assay)[45]. […] The resulting salts were then resuspended in hydrochloric acid (0.04 mol l^−1) in anhydrous isopropanol and quantified by spectrophotometric measurements of absorbance at 570 nm. […]

For another data set, the system named is E. coli AIC221. The data set is classed as cell-based, Escherichia coli. The following applies: AIC221, 24 h. Here is the method: as §1, with “out. […]” for “out.”
In data set [4] the test system is A. baumannii ATCC 19606. The data set can be described thus: Cytoplasmic-membrane depolarization, DiSC3-5. The following applies: DiSC3-5 fluorescence, peptides at their MIC, 60 min. The data set is classed as cell-based, Acinetobacter baumannii. Here is the method:
Fig. 3 Mechanism of action and cytotoxic activity of designed peptides. a, To assess whether the peptides act on bacterial membranes, all active peptides against A. baumannii American Type Culture Collection (ATCC) 19606 were subjected to outer-membrane permeabilization, and peptides active against A. baumannii ATCC 19606 and vancomycin-resistant E. faecalis ATCC 700802 were tested in cytoplasmic-membrane depolarization assays. b, The fluorescent probe NPN was used to assess membrane permeabilization induced by the tested peptides. c,d, The fluorescent probe DiSC3-5 was used to evaluate membrane depolarization caused by the designed peptides in A. baumannii ATCC 19606 (c) and vancomycin-resistant E. faecalis ATCC 700802 (d). […] All experiments were performed in three independent replicates. […]
The cytoplasmic-membrane depolarization assay was performed using the membrane-potential-sensitive dye DiSC3-5. […] Membrane depolarization was then followed by reading changes in the fluorescence (λex = 622 nm, λem = 670 nm) over time for 60 min. The relative fluorescence was calculated using the untreated control (buffer + bacteria + fluorescent dye) as baseline and the following equation was applied to reflect the percentage difference between the baselines and the sample: percentagedifference=100×(fluorescencesample−fluorescenceuntreatedcontrol)/fluorescenceuntreatedcontrol. […]

The term MIC denotes the lowest concentration that inhibits growth of the organism. Read a high MIC as a need for much substance. As for FRLAAVLHFHIH [AT4], the MIC against A. baumannii ATCC 19606 [1] is 32 µM; against K. pneumoniae ATCC 13883 it was 8 µM; against S. aureus ATCC 12600, 64 µM; in data set [2], 32 µM; in data set [3] it was 16 µM. In addition, the “CC50, cytotoxic concentration leading to 50% cell lysis” value with HEK293T cells is 3.015 mM.

Turning to KFKLIVHYRICK [NG3], the values for the minimum inhibitory concentration (MIC) in the data set with A. baumannii ATCC 19606 [1], against E. coli AIC221 and against K. pneumoniae ATCC 13883 were 32 µM, 8 µM and 16 µM, respectively. The cytoplasmic-membrane depolarization result in the data set with A. baumannii ATCC 19606 [4] is recorded as “particularly effective”.
